Entries after “also recorded” stand apart in the source; their conditions may differ.
Assays:
[1] = test system: LIM 1215 human colon epithelial cells; test: Crystal violet proliferation assay; format: cell-based; settings: three days, low serum (0.05%) media, crystal violet absorbance at 595 nm
Description: FIG. 2. This figure is a graphical representation of the proliferative effect of the peptides of the invention on human colonic epithelial cells in vitro. These peptides are designated in the figure as EGF-β (SEQ ID NO: 2, above), represented by the closed circles, and as EGF-α/β (SEQ ID NO: 1, above), represented by the open circles. For comparison, two other peptides of equal length are included, designated as EGF-α and EGF-β/α, and represented by the closed squares and open squares, respectively. The latter two are homologs based on the EGF domain of extracellular NDF-heregulins and consist of the amino acid sequences shown further below in this text (SEQ ID NOS: 3 and 4, respectively). Proliferation is measured with a crystal violet dye which stains the cell protein and is indicative of cell number. […] The picomolar (pM) concentration of peptide used to treat the cells is shown on the horizontal axis.
a) Crystal Violet Proliferation Assay. The human colon epithelial cell line, LIM 1215 (Whitehead, R. H. et al., J. Natl. Cancer Inst. 4:759-765, 1985) was grown in RPMI-1640 media supplemented with 5% FBS, 1 μg/ml of hydrocortisone, 1 μg/ml of bovine insulin, 10 μM of alpha thioglycerol, and 1X PSG (0.292 mg/ml of 1-glutamine, 100 units/ml of penicillin G, and 100 μg/ml of streptomycin sulfate). At the start of the assay, the cells were 30% confluent and were proliferating rapidly. Cells were released by trypsin, washed with PBS, and seeded into 96-well plates at 5000 cells/well in low serum (0.05%) media (McCoy's-5A supplemented with 4 μg/ml of transferrin, 10 μg/ml of insulin, 10 mM of selenic acid, 4 nM of triiodothyronine, and 0.03% BSA). Dilutions of test peptide were added immediately on day zero; the total volume was 100 μl. Controls included no treatment and serial dilutions of FBS. The 96-well plates were then incubated for three days at 37° C. in a 5% CO2 atmosphere. The media were removed by aspiration and 30 μl of 2% crystal violet (Difco) in methanol was added to the cells for fifteen minutes of staining. Excess dye was washed away with distilled water. To each well 100 μl of 0.04N HCL in isopropanol was added and the dye was resolubilized by mixing. Absorbance was determined at 595 nm and the values were plotted as fold-stimulation over background (or no treatment).
b) Stimulation of colon cell proliferation. […] The chimeric peptides helped to pinpoint this determinant of activity to the seven residues corresponding to amino acids 222-228 of full length extracellular NDF/heregulin. […]

LIM 1215 cells = test: Marker protein expression, ACAS confocal image cytometer; format: cell-based, human; set-up: key to Marker Protein Expression: CEA / Marker Protein Expression: Integrin β4 / Marker Protein Expression: Villin: increased expression (+); down-regulated (-); unchanged (0)
Description: Additional confirmation of the importance of this seven amino-acid sequence was obtained by scoring for various marker proteins on the LIM 1215 cells. An ACAS confocal image cytometer was used to detect a number of markers on the cells without detaching the cells from the culture dish, as is normally done for fluorescence activated cell sorting (FACS) analysis. […] The expression of a number of other markers was unchanged (0) by treatment with EGF-β. Analogous to the previous results characterizing gross, observable morphology changes, neither EGF-α nor EGF-β/α changed the levels of these marker proteins, while EGF-α/β changed the expression of the marker proteins in a manner similar to that seen with EGF-β.

Schwann cells = test: Schwann cell proliferation (BrdU incorporation, NGFR staining); format: cell-based, rat; settings: for percent of Schwann cells proliferating: BrdU for six hours after 24 h; for Schwann cell proliferation, comparison in words: versus EGF-β/α
Procedure: The sciatic nerve from neonatal rats was used to generate a primary culture of Schwann cells. The cells were plated overnight in 10% serum without exposure to any growth factor. The following day, EGF-β, EGF-α/βand EGF-β/α were added at the concentrations in nanograms per milliliter(ng/ml) shown in Table 2, below. Twenty four hours later, BrdU was added to each test sample for six hours. BrdU is a thymidine analog which is incorporated into the DNA of dividing cells and can be detected by standard immunochemistry procedures. This agent thus provides a means for determining expansion of the total amount of DNA in a test sample and is a measure of whether cell proliferation has occurred. Upon the completion of the test period, Schwann cells were fixed and analyzed immunohistochemically. The cells were first stained for nerve growth factor receptor (NGFR), which is a known marker for Schwann cells in culture, followed by staining for BrdU. Cell counting was carried out as follows: in a given microscope field of view, all recognizable Schwann cells were counted, then the number of cells showing positive for BrdU staining were also counted. For each test sample (or well) two or three fields were counted, amounting to about 200 to 300 Schwann cells in all. The result is expressed in Table 2 as the percent of Schwann cells proliferating.

[2] = test system: LIM 1215 human colon epithelial cells; test: Morphogenic activity: fluorescent actin staining (NBD phalloidin), confocal microscope; format: cell-based; settings: 420 picomolar peptide, three days, serum-free media
Procedure: c) Staining of LIM 1215 human colon cells with fluorescent dye. LIM 1215 cells were grown in RPMI-1640 media supplemented with 5% FBS, 1 μg/ml of bovine insulin, 10 μm of alpha thioglycerol, and 1× PSG. At the time of assay, the cells were more than 30% confluent and were proliferating rapidly. The cells were seeded into 24-well plates at 25,000 cells/well in serum-free media (McCoy's-5A, supplemented with 4 μg/ml of transferrin, 10 μg/ml of insulin, 10 mM of selenic acid, […], and 0.03% BSA). Test peptides were added at a concentration of 420 picomolar immediately on day zero; the total volume was 1.0 ml. Controls included no treatment and serial dilutions of FBS. The 24-well plates were then incubated for three days at 37° C. and 5% CO2, after which the media were removed by aspiration and the cells were washed in 1.0 ml of PBS with 0.5% BSA. All subsequent washings were performed with this buffer. The cells were then fixed in Orthopermeafix (Ortho Chemicals Co.) for thirty minutes at room temperature, and were washed twice. Then 200 μl of a 10 nM NBD phalloidin fluorescent dye solution in PBS were added and the cells were incubated in the dark (wrapped in aluminum foil) for thirty minutes at room temperature. The cells were washed twice, and inspected using a confocal microscope.
d) Morphogenic activity of peptides on colon epithelial cells. Upon treatment of LIM 1215 cells with the EGF-β peptide, it was evident that the morphology of the cells changed dramatically. […] In the absence of treatment, the cells appeared small and rounded. […] Because the cells were proliferating rapidly in 5% FBS serum-containing media (FIG. 3), the unique morphology caused by the EGF-β peptide could not have been due solely to its ability to stimulate proliferation. Moreover, the difference in morphogenic activities between EGF-β and EGF-α must have originated in the last sixteen amino acids of the C-terminus, as this is the only difference in sequence between the two peptides.
Further localization of morphogenic activity was obtained by use of the chimeric peptides, EGF-β/α and EGF-α/β. […] Again, the only difference in sequence between these two peptides is the last seven amino acids of the C-terminal portion.

endoproteinase Lys-C = endoproteinase Lys-C (Lysobacter enzymogenes, UniProt Q7M135); test: Digestion by endoproteinase Lys-C (peptide mapping); settings: cleavage at lysine residue at position 211
Chain of endoproteinase Lys-C (Q7M135 whole entry, the tested form may be a part): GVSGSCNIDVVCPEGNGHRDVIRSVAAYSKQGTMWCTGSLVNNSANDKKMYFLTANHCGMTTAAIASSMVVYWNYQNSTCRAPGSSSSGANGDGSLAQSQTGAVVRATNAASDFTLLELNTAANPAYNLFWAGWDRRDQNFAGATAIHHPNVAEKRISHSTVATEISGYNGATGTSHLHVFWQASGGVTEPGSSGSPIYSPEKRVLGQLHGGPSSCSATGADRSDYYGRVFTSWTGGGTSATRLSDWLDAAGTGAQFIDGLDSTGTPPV
Description: The initial studies referred to here utilized peptides based solely on sequences of the EGF-like domain of the aforementioned α2 and β1 forms of NDF/heregulin, that is to say, that portion of the extracellular protein from amino acid residue 177 to amino acid residue 228 (see FIG. 1 herein). […] The reason for this difference was not initially apparent. However, during peptide mapping studies of the EGF-like domains of NDF/heregulins, it was discovered that the α and β forms cleaved (degraded) at different rates when subjected to digestion by endoproteinase Lys-C. […] Moreover, this phenomenon seemed limited to the lysine residue at position 211. There was no apparent difference in the rate of cleavage between α and β at any other lysine residues in the N-terminal end of the EGF-like domain.

[3] = peptide concentration 0.1 ng/ml
[4] = peptide concentration 100 ng/ml

## EGF-α/β: chimeric 52-residue peptide SHLVK-(A)-QNYVMAS; α177-221/β222-228 of extracellular NDF/heregulin EGF-like domain (SHLVKCAEKEKTFCVNGGECFMVKDLSNPSRYLCKCQPGFTGARCQNYVMAS)
[1]
  proliferation of LIM 1215 cells (fold stimulation, FIG. 2): best results for cell proliferation; also recorded: displayed significant mitogenic activity
LIM 1215 cells
  Marker Protein Expression: CEA: +
  Marker Protein Expression: Integrin β4: +
  Marker Protein Expression: Villin: -
Schwann cells; [3]
  percent of Schwann cells proliferating: 1%
Schwann cells; peptide concentration 1 ng/ml
  percent of Schwann cells proliferating: 10%
Schwann cells; peptide concentration 10 ng/ml
  percent of Schwann cells proliferating: 10%
Schwann cells; [4]
  percent of Schwann cells proliferating: 17%
Schwann cells
  Schwann cell proliferation, comparison in words: stimulated the proliferation of Schwann cells to a significantly greater extent than EGF-β/α
[2]
  morphological (morphogenic) changes of LIM 1215 cells: evidence of cell development and maturation is seen; also recorded: caused apparent morphogenic changes

## EGF-α: comparison 52-residue peptide SHLVK-(A)-TENVPMK; EGF-like domain (residues 177-228) of NDF/heregulin α2 (SHLVKCAEKEKTFCVNGGECFMVKDLSNPSRYLCKCQPGFTGARCTENVPMK) [reference compound]
[1]
  proliferation of LIM 1215 cells (fold stimulation, FIG. 2): Some proliferation was obtained; also recorded: not as potent a mitogen
LIM 1215 cells
  Marker Protein Expression: CEA: 0
  Marker Protein Expression: Integrin β4: 0
  Marker Protein Expression: Villin: 0
[2]
  morphological (morphogenic) changes of LIM 1215 cells: did not produce the same morphogenic changes
Endoproteinase Lys-C
  rate of cleavage by endoproteinase Lys-C: faster enzymatic cleavage

## EGF-β/α: comparison chimeric 52-residue peptide SHLVK-(B)-TENVPMK; β177-221/α222-228 of extracellular NDF/heregulin (SHLVKCAEKEKTFCVNGGECFMVKDLSNPSRYLCKCPNEFTGDRCTENVPMK) [reference compound]
[1]
  proliferation of LIM 1215 cells (fold stimulation, FIG. 2): No effect was seen; also recorded: did not show any detectable effect
LIM 1215 cells
  Marker Protein Expression: CEA: 0
  Marker Protein Expression: Integrin β4: 0
  Marker Protein Expression: Villin: 0
Schwann cells; [3]
  percent of Schwann cells proliferating: 1%
Schwann cells; peptide concentration 1 ng/ml
  percent of Schwann cells proliferating: 2%
Schwann cells; peptide concentration 10 ng/ml
  percent of Schwann cells proliferating: 5%
Schwann cells; [4]
  percent of Schwann cells proliferating: 10%
[2]
  morphological (morphogenic) changes of LIM 1215 cells: appear unchanged; also recorded: did not produce any noticeable change

## EGF-β: 52-residue peptide SHLVK-(B)-QNYVMAS; EGF-like domain (residues 177-228) of NDF/heregulin β1 (SHLVKCAEKEKTFCVNGGECFMVKDLSNPSRYLCKCPNEFTGDRCQNYVMAS)
[1]
  proliferation of LIM 1215 cells (fold stimulation, FIG. 2): best results for cell proliferation; also recorded: stimulated the proliferation of LIM 1215 cells
LIM 1215 cells
  Marker Protein Expression: CEA: +
  Marker Protein Expression: Integrin β4: +
  Marker Protein Expression: Villin: -
  expression of a number of other markers: unchanged
Schwann cells; [3]
  percent of Schwann cells proliferating: 7.5%
Schwann cells; peptide concentration 1 ng/ml
  percent of Schwann cells proliferating: 13%
Schwann cells; peptide concentration 10 ng/ml
  percent of Schwann cells proliferating: 14%
Schwann cells; [4]
  percent of Schwann cells proliferating: 19%
Schwann cells
  Schwann cell proliferation, comparison in words: stimulated the proliferation of Schwann cells to a significantly greater extent than EGF-β/α
[2]
  morphological (morphogenic) changes of LIM 1215 cells: Evidence of cellular morphological changes is seen; also recorded: noticeable change in morphology, becoming enlarged and assuming a cobblestone-like appearance
Endoproteinase Lys-C
  rate of cleavage by endoproteinase Lys-C: more resistant to this enzyme and cleaved at a slower rate

Reference: US5929032A, “Method for treating Schwann and colon cells in vitro” (Amgen Inc., priority 1996, dated 1999)
